US20090306009A1, “Modulation of the P2Y2 Receptor Pathway” (P2-SCIENCE APS, priority 2005, published 2009)
Entries after “also recorded” stand apart in the source; their conditions may differ. Like-named read-outs stand apart in the source and are kept apart here.

What was measured:
[1] = system: resting leg of healthy male subjects; test: Leg haemodynamic responses to intrafemoral artery infusion of purinergic vasodilators alone and combined with tyramine; type: in vivo, human; details: for effect on increased sympathetic vasoconstrictor activity evoked by tyramine: infusion in the resting leg; for leg blood flow (LBF) during vasodilator infusion: intrafemoral artery infusion of vasodilator alone, resting leg, rest about 0.5; for leg blood flow (LBF) during vasodilator infusion / leg a-v O2 difference during vasodilator infusion / leg blood flow (LBF) during combined vasodilator and tyramine infusion / leg a-v O2 difference during combined vasodilator and tyramine infusion: mean±S.E.M.; for leg vasoconstriction caused by tyramine during vasodilator infusion: tyramine added to the infusion of the named vasodilator; for leg a-v O2 difference during vasodilator infusion: vasodilator alone; for leg blood flow (LBF) during combined vasodilator and tyramine infusion: vasodilator plus tyramine about 13.2 μmol/min; for leg a-v O2 difference during combined vasodilator and tyramine infusion: vasodilator plus tyramine; for effect of tyramine on leg vascular conductance during vasodilator infusion / effect of tyramine on LBF during vasodilator infusion: tyramine added to vasodilator infusion; for effect of tyramine on LBF during vasodilator infusion: P=0.53
Protocol: This study was performed in nine healthy male subjects from Denmark. The subjects were fully informed of any risks and discomforts associated with the experiments before giving their informed written consent to participate. The studies conformed to the code of Ethics of the World Medical Association (Declaration of Helsinki) and were approved by the Ethics Committee for Copenhagen and Frederiksberg communities.
Subjects reported to the laboratory at 8 a.m. or 1 p.m., following the ingestion of a light breakfast or lunch. Upon arrival, they rested in a supine position while three catheters were placed under local anaesthesia (1% lidocaine) into the femoral artery and vein of the right leg and in the femoral artery of the left leg using the Seldinger technique. The femoral artery and vein catheters were positioned 1-2 cm distal from the inguinal ligament. A thermistor (Edslab probe 94-0.3-2.5F) to measure venous blood temperature was inserted through the femoral venous catheter orientated in the anterograde direction for the determination of femoral venous blood flow. Femoral venous blood flow (an index of leg blood flow (LBF)) was determined by the constant infusion thermodilution technique (Andersen & Saltin, 1985 J Physiol. 366:233-49; González-Alonso et al. 2000 J Physiol. 524:603-15; Am J Physiol Heart Circ Physiol. 278(2):H321-30). LBF represents the average of two measurements made 1-2 min after the start of exercise and 1-2 min after the start of infusion of ATP, adenosine or tyramine. Arterial blood pressure was continuously monitored by a pressure transducer (Pressure Monitoring Kit, Baxter) at the level of inguinal region and calculated by integration of the pressure curve. Heart rate was determined from an electrocardiogram. All data were continuously recorded using a Powerlab system (ADInstruments, Sydney, Australia).
Leg blood flow (LBF) and mean arterial pressure (MAP) was measured during […] purinergically-induced hyperaemic conditions: (1) Intrafemoral artery infusion of adenosine (vasodilator control), (2) sequential intraarterial infusion of AMP, ADP, ATP or UTP (vasodilators), and (3), comparing the responses with the combined infusion with the vasoconstrictor drug tyramine, which evokes endogenous release of noradrenaline from sympathetic nerve endings.
Adenosine (Item Development AB, Stocksund, Sweden) was dissolved in isotonic saline (1.25 mg ml^−1) and infused at a rate of 16 μmol min^−1. AMP (Sigma) was dissolved in isotonic saline and infused at 71 μmol/min, ADP (Sigma) was dissolved in isotonic saline at […], ATP (Sigma) was dissolved in isotonic saline at 1 μmol/^min and UTP (Sigma) was dissolved in isotonic saline 1 μmol min^−1
95:2370-4; J Physiol. 547:971-6).
(§1) The combined infusion of adenosine and tyramine was to evoke a vasoconstrictor response in the resting leg of about 50%, without causing increases in arterial blood pressure, as previously documented in the Leg (Rosenmeier et al. 2004 J. Physiol. 558:351-365). Tyramine (Sigma T-2879) dissolved in isotonic saline (0.52 mg ml-1) was infused at a rate of about 13.2 μmol/min through all the tyramine trials.
The subjects first received separate infusions of adenosine, AMP, ADP, ATP or UTP for 4 min followed by combined infusions of vasodilator and tyramine for an additional 4 min.
Plasma noradrenaline and adrenaline concentrations were determined with high performance liquid chromatography with electrochemical detection (Hallman et al. 1978 Life Sci. 23(10):1049-52). Arterial and femoral haemoglobin concentration and O2 saturation were determined spectrophotometrically (OSM-3 Hemoximeter, Radiometer). PO2 was determined with the Astrup technique (ABL 5, Radiometer, Copenhagen, Denmark).
Leg vascular conductance was calculated as the quotient between LBF and mean arterial pressure. Leg O2 delivery was calculated by multiplying LBF by arterial O2 content. […]

leg blood flow [2] = details: previously registered, Rosenmeier et al. 2004; cited from earlier work
leg blood flow [3] = test: Maximal nucleotide-induced vasodilatation at rest relative to peak LBF during maximal bicycling exercise; type: in vivo, human
Description: Maximal UTP-induced vasodilatation was investigated at rest accounted for […] of the peak LBF during maximal bicycling exercise in comparison to the 78% increase in LBF previously registered for ATP (Rosenmeier et al. 2004 J. Physiol. 558:351-365).

resting leg = test: Tyramine infusion alone in the resting leg (separate studies); type: in vivo, human; details: tyramine about 13.2 μmol/min, no vasodilator
Protocol: as §1

[4] = vasodilator alone versus combined with tyramine

Structure (SMILES)	effect on increased sympathetic vasoconstrictor activity evoked by tyramine [1]	leg blood flow (LBF) during vasodilator infusion [1] [L/min]	leg vasoconstriction caused by tyramine during vasodilator infusion [1] [%]	leg VO2, vasodilator alone versus with tyramine [1, 4]	leg a-v O2 difference during vasodilator infusion [1]	leg blood flow (LBF) during combined vasodilator and tyramine infusion [1] [L/min]	change of leg a-v O2 difference on addition of tyramine [1, 4]	leg a-v O2 difference during combined vasodilator and tyramine infusion [1] [ml l^−1]	effect of tyramine on leg vascular conductance during vasodilator infusion [1]	effect of tyramine on LBF during vasodilator infusion [1]	maximal vasodilatation as share of peak LBF during maximal bicycling exercise (leg blood flow [2]) [%]	maximal vasodilatation as share of peak LBF during maximal bicycling exercise (leg blood flow [3]) [%]	reduction of blood flow by tyramine infusion (resting leg) [%]
Nc1ncnc2c1ncn2[C@@H]1O[C@H](COP(=O)(O)OP(=O)(O)O)[C@@H](O)[C@H]1O [ADP]	does not; also recorded: substantial vasoconstrictor response	3.34 ± 0.4	30	statistically significantly different	6.0+1 ml l^−1	2.3 ± 0.3	–	–	–	–	–	–	–
Nc1ncnc2c1ncn2[C@@H]1O[C@H](COP(=O)(O)O)[C@@H](O)[C@H]1O [AMP]	does not; also recorded: substantial vasoconstrictor response	3.7 ± 0.4	53	–	4.5±0.5 ml l^−1	1.7 ± 0.2	elevated	15.3±3.1	–	–	–	–	–
Nc1ncnc2c1ncn2[C@@H]1O[C@H](COP(=O)(O)OP(=O)(O)OP(=O)(O)O)[C@@H](O)[C@H]1O [ATP]	fully blunts	–	0	–	7.9±1.7 ml l^−1	–	Absolutely no change; also recorded: unchanged	5.7±1.6	did not alter; also recorded: no reduction	did not alter; also recorded: no reduction	78	–	–
O=c1ccn([C@@H]2O[C@H](COP(=O)(O)OP(=O)(O)OP(=O)(O)O)[C@@H](O)[C@H]2O)c(=O)[nH]1 [UTP]	fully blunts	–	0	–	7.1±0.9 ml l^−1	–	Absolutely no change; also recorded: unchanged	7.1±1.5	did not alter; also recorded: no reduction	did not alter; also recorded: no reduction	–	50	–
Nc1ncnc2c1ncn2[C@@H]1O[C@H](CO)[C@@H](O)[C@H]1O [adenosine]	does not; also recorded: substantial vasoconstrictor response	3.8 ± 0.3	56	–	7.7±0.5 ml l^−1	1.7 ± 0.2	elevated	26.0±2.2	–	–	–	–	–
NCCc1ccc(O)cc1 [tyramine]	–	–	–	–	–	–	–	–	–	–	–	–	44±3
